Data: US20060216336A1, “Transdermal therapeutic system for Parkinson's Disease” (priority 2002, published 2006)

How the values were obtained:
RLS symptoms = conditions: administration of rotigotine; cited from earlier work
[1] = Placebo-controlled trial in early stage idiopathic Parkinson's disease: rotigotine plasma concentrations during titration and maintenance (Example 5); format: in vivo, human; conditions: for rotigotine plasma concentration, Max / rotigotine plasma concentration, Mean / rotigotine plasma concentration, Median / rotigotine plasma concentration, Min: prior removal
From the text: Trial periods consisted of a 4-week pre-treatment (washout) period, a 3-week dose escalation period, a 25-week dose maintenance period, and a 4-week follow-up period for a total duration of 36 weeks.

[2] = Day 1 MP (maintenance period), 13.5 mg/day
[3] = Day 15 TP (titration period), 9.0 mg/day
[4] = Day 57 MP (maintenance period), 13.5 mg/day
[5] = Day 113 MP (maintenance period), 13.5 mg/day
[6] = End of MP (maintenance period), 13.5 mg/day

CCCN(CCc1cccs1)[C@H]1CCc2c(O)cccc2C1 [rotigotine, (6S)-6{propyl[2-(2-thienyl)ethyl]amino}-5,6,7,8-tetrahydro-1-naphthalenol]
effect on RLS symptoms (RLS symptoms): suppression and reduction of RLS symptoms | rotigotine plasma concentration, Max [1, 2]: 2.130 ng/mL | rotigotine plasma concentration, Mean [1, 2]: 0.757 ng/mL | rotigotine plasma concentration, Median [1, 2]: 0.714 ng/mL | rotigotine plasma concentration, Min [1, 2]: 0.064 ng/mL | rotigotine plasma concentration, Max [1, 3]: 1.580 ng/mL | rotigotine plasma concentration, Mean [1, 3]: 0.508 ng/mL | rotigotine plasma concentration, Median [1, 3]: 0.435 ng/mL | rotigotine plasma concentration, Min [1, 3]: 0.053 ng/mL | rotigotine plasma concentration, Max [1, 4]: 2.070 ng/mL | rotigotine plasma concentration, Mean [1, 4]: 0.824 ng/mL | rotigotine plasma concentration, Median [1, 4]: 0.702 ng/mL | rotigotine plasma concentration, Max [1, 5]: 2.420 ng/mL | rotigotine plasma concentration, Mean [1, 5]: 0.825 ng/mL | rotigotine plasma concentration, Median [1, 5]: 0.713 ng/mL | rotigotine plasma concentration, Min [1, 5]: 0.122 ng/mL | rotigotine plasma concentration, Max [1, 6]: 1.800 ng/mL | rotigotine plasma concentration, Mean [1, 6]: 0.788 ng/mL | rotigotine plasma concentration, Median [1, 6]: 0.729 ng/mL | rotigotine plasma concentration, Min [1, 6]: 0.282 ng/mL | rotigotine plasma concentration over the maintenance phase ([1]; FIG. 10): stable concentration
